Measurements as given in patent publication US8536168B2 (Novartis AG, priority 2007, dated 2013).
Where two headings read alike, the source gives them in different places.

Legend:
Gli-luciferase activity = test: Reporter gene assay (RGA) in TMHh12 cells, antagonism of Gli-luciferase activity in the presence of a Smo agonist; format: cell-based
Procedure: Activity of the compounds was evaluated using a reporter gene assay (RGA) in TMHh12 cells.

[1] = molecular target: mouse Smoothened receptor (Mus musculus, UniProt P56726); test: Smo binding assay, displacement of radio-labeled smoothened agonist, filter binding format (mouse); settings: displacement of small molecule agonist of Smoothened, read-out: Mouse Smo bdg., IC50
mouse Smoothened receptor, sequence (P56726 33-793): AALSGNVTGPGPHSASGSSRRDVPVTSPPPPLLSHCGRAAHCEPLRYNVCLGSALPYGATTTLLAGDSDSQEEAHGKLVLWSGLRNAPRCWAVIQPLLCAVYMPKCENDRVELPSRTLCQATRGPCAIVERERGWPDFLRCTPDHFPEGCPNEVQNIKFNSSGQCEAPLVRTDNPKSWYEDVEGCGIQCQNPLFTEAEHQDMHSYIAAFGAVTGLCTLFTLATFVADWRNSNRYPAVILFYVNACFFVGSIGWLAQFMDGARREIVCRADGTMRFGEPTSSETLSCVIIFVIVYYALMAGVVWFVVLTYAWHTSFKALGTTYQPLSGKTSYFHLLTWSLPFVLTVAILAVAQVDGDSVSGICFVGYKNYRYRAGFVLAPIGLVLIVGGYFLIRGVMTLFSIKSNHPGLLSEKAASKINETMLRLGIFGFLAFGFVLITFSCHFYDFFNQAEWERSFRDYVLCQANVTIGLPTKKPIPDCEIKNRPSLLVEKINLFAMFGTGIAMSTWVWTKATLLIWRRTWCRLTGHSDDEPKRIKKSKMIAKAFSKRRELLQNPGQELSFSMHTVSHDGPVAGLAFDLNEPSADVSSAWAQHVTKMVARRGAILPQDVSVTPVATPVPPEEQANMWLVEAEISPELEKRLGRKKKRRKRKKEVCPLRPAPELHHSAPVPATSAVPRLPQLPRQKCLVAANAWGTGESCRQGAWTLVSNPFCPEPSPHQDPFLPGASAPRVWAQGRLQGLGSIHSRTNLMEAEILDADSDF
Excerpt: A Smo binding assay was developed using radio-labeled smoothened agonist for compound competition.

[2] = molecular target: human Smoothened receptor (Homo sapiens, UniProt Q99835); test: Smo binding assay, displacement of radio-labeled smoothened agonist, filter binding format (human); settings: displacement of small molecule agonist of Smoothened, read-out: Human Smo bdg., IC50
human Smoothened receptor, sequence (Q99835 28-787): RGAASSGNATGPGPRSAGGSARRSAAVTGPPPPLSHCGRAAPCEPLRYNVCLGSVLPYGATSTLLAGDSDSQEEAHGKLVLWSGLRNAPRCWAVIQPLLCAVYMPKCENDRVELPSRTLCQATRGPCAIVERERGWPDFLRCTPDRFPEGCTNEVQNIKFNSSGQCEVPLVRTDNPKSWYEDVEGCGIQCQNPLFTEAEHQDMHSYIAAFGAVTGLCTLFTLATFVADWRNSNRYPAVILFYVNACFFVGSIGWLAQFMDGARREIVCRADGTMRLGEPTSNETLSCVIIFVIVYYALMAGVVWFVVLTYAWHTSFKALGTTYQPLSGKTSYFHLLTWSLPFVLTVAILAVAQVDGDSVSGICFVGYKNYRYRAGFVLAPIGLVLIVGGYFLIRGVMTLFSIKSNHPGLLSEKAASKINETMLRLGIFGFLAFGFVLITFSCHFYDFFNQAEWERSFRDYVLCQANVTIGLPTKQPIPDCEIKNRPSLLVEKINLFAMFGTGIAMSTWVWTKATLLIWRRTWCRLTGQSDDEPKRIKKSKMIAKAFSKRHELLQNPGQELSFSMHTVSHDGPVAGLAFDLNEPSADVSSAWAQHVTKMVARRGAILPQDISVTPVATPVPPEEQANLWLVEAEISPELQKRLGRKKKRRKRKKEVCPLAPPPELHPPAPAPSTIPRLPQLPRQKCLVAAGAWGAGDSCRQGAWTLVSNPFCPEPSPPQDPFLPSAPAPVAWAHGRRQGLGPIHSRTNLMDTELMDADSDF
Excerpt: A Smo binding assay was developed using radio-labeled smoothened agonist for compound competition. Table 9 lists the IC50 for displacement of a small molecule agonist of Smoothened determined in a filter binding format for the mouse and human Smoothened receptor.

[3] = 25 nM small molecule Smo agonist, read-out: RGA (25 nM Smo agonist) IC50
[4] = read-out: RGA (1 nM Smo agonist) IC50, 1 nM small molecule Smo agonist

SMILES	IC50 (Gli-luciferase activity; [3])	IC50 (Gli-luciferase activity; [4])	IC50 [1]	IC50 [2]
Cc1c(N2CCN(c3ccc(C(F)(F)F)cn3)CC2)nnc(Cc2ccccc2)c1CNCc1ccccc1 [Example 242, N-benzyl-1-(3-benzyl-5-methyl-6-(4-(5-(trifluoromethyl)pyridin-2-yl)piperazin-1-yl)pyridazin-4-yl)methanamine]	1000 to 10000 nM	1000 to 10000 nM	1000 to 10000 nM	1000 to 10000 nM
COc1ccc(CN2Cc3c(Cc4ccccc4)nnc(N4CCN(c5ccc(C(F)(F)F)cn5)CC4)c3C2)cc1 [Example 243, 1-benzyl-6-(4-methoxybenzyl)-4-(4-(5-(trifluoromethyl)pyridin-2-yl)piperazin-1-yl)-6,7-dihydro-5H-pyrrolo[3,4-d]pyridazine]	1000 to 10000 nM	1000 to 10000 nM	100 to 1000 nM	1000 to 10000 nM
CC(C)n1cc2c(Cc3ccccc3)nnc(N3CCN(c4ccc(C(F)(F)F)cn4)CC3)c2c1 [Example 244, 1-benzyl-6-isopropyl-4-(4-(5-(trifluoromethyl)pyridin-2-yl)piperazin-1-yl)-6H-pyrrolo[3,4-d]pyridazine]	1000 to 10000 nM	1000 to 10000 nM	100 to 1000 nM	100 to 1000 nM
FC(F)(F)c1ccc(N2CCN(c3nnc(Cc4ccccc4)c4occc34)CC2)nc1 [Example 245, 7-Benzyl-4-[4-(5-trifluoromethyl-pyridin-2-yl)-piperazin-1-yl]-furo[2,3-d]pyridazine]	1000 to 10000 nM	< 100 nM	100 to 1000 nM	100 to 1000 nM
FC(F)(F)c1ccc(N2CCN(c3nnc(Cc4ccccc4)c4ccoc34)CC2)nc1 [Example 246, 4-Benzyl-7-[4-(5-trifluoromethyl-pyridin-2-yl)-piperazin-1-yl]-furo[2,3-d]pyridazine]	1000 to 10000 nM	< 100 nM	10000 to 40000 nM	1000 to 10000 nM
FC(F)(F)c1ccc(N2CCN(c3nnc(Cc4ccccc4)c4[nH]cnc34)CC2)nc1 [Example 247, 7-Benzyl-4-[4-(5-trifluoromethyl-pyridin-2-yl)-piperazin-1-yl]-1H-imidazo[4,5-d]pyridazine]	1000 to 10000 nM	1000 to 10000 nM	100 to 1000 nM	100 to 1000 nM
